Reference: patent US10913727B2, “Modulators of the integrated stress pathway” (Calico Life Sciences LLC, priority 2016, dated 2021)

Test system: HEK293T cells carrying the ATF4 luciferase reporter
Experiment: ATF4-Luc assay, in vitro model of Vanishing Cell White Matter Disease (VWMD)
Format: cell-based
Conditions: Homo sapiens, HEK-293T, 1 μg/mL tunicamycin, 7 hours, One Glo luminescence
In short: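 Stable HEK293T line with human ATF4 5′-UTR–firefly luciferase reporter treated with 1 μg/mL tunicamycin plus 200 nM compound for 7 h. Luminescence read; EC50 derived.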

| Structure (SMILES) | EC50 |
| --- | --- |
| Cc1ccc(C(=O)NC23CC(NC(=O)COc4ccc(Cl)c(Cl)c4)(C2)C3)c(C)n1 [Compound 687, N-{3-[2-(3,4-dichlorophenoxy)acetamido]bicyclo[1.1.1]pentan-1-yl}-2,6-dimethylpyridine-3-carboxamide] | 250 to 1000 nM |
| O=C(COc1ccc(Cl)c(F)c1)NC12CC(NC(=O)c3coc(C4CC4)n3)(C1)C2 [Compound 248, N-{3-[2-(4-chloro-3-fluorophenoxy)acetamido]bicyclo[1.1.1]pentan-1-yl}-2-cyclopropyl-1,3-oxazole-4-carboxamide] | 50 to 250 nM |
| CCc1ccc(C(=O)NC23CC(NC(=O)COc4ccc(Cl)c(Cl)c4)(C2)C3)nc1 [Compound 700, N-{3-[2-(3,4-dichlorophenoxy)acetamido]bicyclo[1.1.1]pentan-1-yl}-5-ethylpyridine-2-carboxamide] | < 50 nM |
| COc1ccc(C(=O)NC23CC(NC(=O)COc4ccc(Cl)c(F)c4)(C2)C3)nc1 [Compound 141, N-{3-[2-(4-chloro-3-fluorophenoxy)acetamido]bicyclo[1.1.1]pentan-1-yl}-5-methoxypyridine-2-carboxamide] | 250 to 1000 nM |
| O=C(COc1ccc(Cl)c(F)c1)NC12CC(NC(=O)c3cscn3)(C1)C2 [Compound 308, N-{3-[2-(4-chloro-3-fluorophenoxy)acetamido]bicyclo[1.1.1]pentan-1-yl}-1,3-thiazole-4-carboxamide] | 250 to 1000 nM |
| O=C(COc1ccc(Cl)c(F)c1)NC12CC(NC(=O)c3cnc(C(F)(F)F)nc3)(C1)C2 [Compound 133, N-{3-[2-(4-chloro-3-fluorophenoxy)acetamido]bicyclo[1.1.1]pentan-1-yl}-2-(trifluoromethyl)pyrimidine-5-carboxamide] | 1000 to 2000 nM |
| CCOC(=O)c1cc(C(=O)NC23CC(NC(=O)COc4ccc(Cl)c(F)c4)(C2)C3)ccn1 [Compound 279, ethyl 4-({3-[2-(4-chloro-3-fluorophenoxy)acetamido]bicyclo[1.1.1]pentan-1-yl}carbamoyl)pyridine-2-carboxylate] | 250 to 1000 nM |
| Cn1cnc2cc(C(=O)NC34CC(NC(=O)COc5ccc(Cl)c(F)c5)(C3)C4)ccc21 [Compound 767, N-{3-[2-(4-chloro-3-fluorophenoxy)acetamido]bicyclo[1.1.1]pentan-1-yl}-1-methyl-1H-benzimidazole-5-carboxamide] | > 2000 nM |
| CC(C)c1cc(C(=O)NC23CC(NC(=O)COc4ccc(Cl)c(F)c4)(C2)C3)n(C)n1 [Compound 364, N-{3-[2-(4-chloro-3-fluorophenoxy)acetamido]bicyclo[1.1.1]pentan-1-yl}-1-methyl-3-(propan-2-yl)-1H-pyrazole-5-carboxamide] | 50 to 250 nM |
| CC(C)(C)OC(=O)N1CCC=C(c2ncc(C(=O)NC34CC(NC(=O)COc5ccc(Cl)c(F)c5)(C3)C4)o2)C1 [Compound 150, tert-butyl 5-[5-({3-[2-(4-chloro-3-fluorophenoxy)acetamido]bicyclo[1.1.1]pentan-1-yl}carbamoyl)-1,3-oxazol-2-yl]-3,6-dihydropyridine-1(2H)-carboxylate] | 50 to 250 nM |
| Cc1cccn2cc(C(=O)NC34CCC(NC(=O)COc5ccc(Cl)c(F)c5)(CC3)C(O)C4)nc12 (stereo not drawn) [Compound 599, N-{4-[2-(4-chloro-3-fluorophenoxy)acetamido]-3-hydroxybicyclo[2.2.2]octan-1-yl}-8-methylimidazo[1,2-a]pyridine-2-carboxamide] | 250 to 1000 nM |
| Cc1cc(C(=O)NC23CC(NC(=O)COc4ccc5c(c4)OC(F)(F)O5)(C2)C3)n(C)n1 [Compound 442, N-(3-{2-[(2,2-difluoro-2H-1,3-benzodioxol-5-yl)oxy]acetamido}bicyclo[1.1.1]pentan-1-yl)-1,3-dimethyl-1H-pyrazole-5-carboxamide] | 250 to 1000 nM |
| N#Cc1ccnc(C(=O)NC23CCC(NC(=O)COc4ccc(Cl)c(F)c4)(CC2)C(O)C3)c1 (stereo not drawn) [Compound 932, N-{4-[2-(4-chloro-3-fluorophenoxy)acetamido]-3-hydroxybicyclo[2.2.2]octan-1-yl}-4-cyanopyridine-2-carboxamide] | 50 to 250 nM |
| O=C(COc1ccc(Cl)c(F)c1)NC12CC(NC(=O)c3ccc(CO)cn3)(C1)C2 [Compound 159, N-{3-[2-(4-chloro-3-fluorophenoxy)acetamido]bicyclo[1.1.1]pentan-1-yl}-5-(hydroxymethyl)pyridine-2-carboxamide] | 250 to 1000 nM |
| CC(C)c1cccc(C(=O)NC23CCC(NC(=O)COc4ccc(Cl)c(F)c4)(CC2)C(O)C3)n1 (stereo not drawn) [Compound 911, N-{4-[2-(4-chloro-3-fluorophenoxy)acetamido]-3-hydroxybicyclo[2.2.2]octan-1-yl}-6-(propan-2-yl)pyridine-2-carboxamide] | 250 to 1000 nM |
| O=C(COc1ccc(Cl)c(F)c1)NC12CC(NC(=O)c3cnc(C4CC4)nc3)(C1)C2 [Compound 888, N-{3-[2-(4-chloro-3-fluorophenoxy)acetamido]bicyclo[1.1.1]pentan-1-yl}-2-cyclopropylpyrimidine-5-carboxamide] | 50 to 250 nM |
| Cc1cccc(C(=O)NC23CC(NC(=O)COc4ccc(Cl)c(F)c4)(C2)C3)n1 [Compound 891, N-{3-[2-(4-chloro-3-fluorophenoxy)acetamido]bicyclo[1.1.1]pentan-1-yl}-6-methylpyridine-2-carboxamide] | 50 to 250 nM |

| Structure (SMILES) | EC50 |
| --- | --- |
| O=C(COc1ccc(Cl)c(F)c1)NC12CC(NC(=O)c3nc(C4CC4)cs3)(C1)C2 [Compound 590, N-{3-[2-(4-chloro-3-fluorophenoxy)acetamido]bicyclo[1.1.1]pentan-1-yl}-4-cyclopropyl-1,3-thiazole-2-carboxamide] | 50 to 250 nM |
| O=C(COc1ccc(Cl)c(F)c1)NC12CCC(NC(=O)c3ccc(OC(F)F)nc3)(C1)C2 [Compound 574, N-{4-[2-(4-chloro-3-fluorophenoxy)acetamido]bicyclo[2.1.1]hexan-1-yl}-6-(difluoromethoxy)pyridine-3-carboxamide] | 50 to 250 nM |
| Cc1cc2c(NC34CC(NC(=O)COc5ccc(OC(F)(F)F)c(F)c5)(C3)C4)nccn2n1 [Compound 496, 2-[3-fluoro-4-(trifluoromethoxy)phenoxy]-N-{3-[(2-methylpyrazolo[1,5-a]pyrazin-4-yl)amino]bicyclo[1.1.1]pentan-1-yl}acetamide] | 50 to 250 nM |
| O=C(COc1ccc(Cl)c(F)c1)NC12CC(Nc3cnc(C(F)(F)F)cn3)(C1)C2 [Compound 102, 2-(4-chloro-3-fluorophenoxy)-N-(3-{[5-(trifluoromethyl)pyrazin-2-yl]amino}bicyclo[1.1.1]pentan-1-yl)acetamide] | 1000 to 2000 nM |
| O=C(COc1ccc(Cl)c(F)c1)NC12CC(NC(=O)c3cc(C4CC4)no3)(C1)C2 [Compound 244, N-{3-[2-(4-chloro-3-fluorophenoxy)acetamido]bicyclo[1.1.1]pentan-1-yl}-3-cyclopropyl-1,2-oxazole-5-carboxamide] | 50 to 250 nM |
| COc1cccc(C(=O)NC23CC(NC(=O)COc4ccc(Cl)c(F)c4)(C2)C3)n1 [Compound 829, N-{3-[2-(4-chloro-3-fluorophenoxy)acetamido]bicyclo[1.1.1]pentan-1-yl}-6-methoxypyridine-2-carboxamide] | 50 to 250 nM |
| O=C(COc1ccc(Cl)c(Cl)c1)NC12CC(NC(=O)c3ccccn3)(C1)C2 [Compound 156, N-{3-[2-(3,4-dichlorophenoxy)acetamido]bicyclo[1.1.1]pentan-1-yl}pyridine-2-carboxamide] | 50 to 250 nM |
| Cc1nn(C)c2sc(C(=O)NC34CC(NC(=O)COc5ccc(Cl)c(F)c5)(C3)C4)cc12 [Compound 878, N-{3-[2-(4-chloro-3-fluorophenoxy)acetamido]bicyclo[1.1.1]pentan-1-yl}-1,3-dimethyl-1H-thieno[2,3-c]pyrazole-5-carboxamide] | 250 to 1000 nM |
| O=C(COc1ccc(Cl)c(F)c1)NC12CC(Nc3cncc(C4CC4)n3)(C1)C2 [Compound 714, 2-(4-chloro-3-fluorophenoxy)-N-{3-[(6-cyclopropylpyrazin-2-yl)amino]bicyclo[1.1.1]pentan-1-yl}acetamide] | 250 to 1000 nM |
| O=C(COc1ccc(Cl)c(F)c1)NC12CC(NC(=O)c3cc4n(n3)CCCN4)(C1)C2 [Compound 125, N-{3-[2-(4-chloro-3-fluorophenoxy)acetamido]bicyclo[1.1.1]pentan-1-yl}-4,5,6,7-tetrahydropyrazolo[1,5-a]pyrimidine-2-carboxamide] | > 2000 nM |
| O=C(COc1ccc(Cl)c(F)c1)NC12CC(NC(=O)c3ccc4ncccc4n3)(C1)C2 [Compound 658, N-{3-[2-(4-chloro-3-fluorophenoxy)acetamido]bicyclo[1.1.1]pentan-1-yl}-1,5-naphthyridine-2-carboxamide] | 50 to 250 nM |
| O=C(COc1ccc(Cl)c(F)c1)NC12CC(NC(=O)c3onc4c3CCCC4)(C1)C2 [Compound 854, N-{3-[2-(4-chloro-3-fluorophenoxy)acetamido]bicyclo[1.1.1]pentan-1-yl}-4,5,6,7-tetrahydro-2,1-benzoxazole-3-carboxamide] | > 2000 nM |
| CC(C)(C)c1cc(C(=O)NC23CCC(NC(=O)COc4ccc(Cl)c(F)c4)(CC2)[C@@H](O)C3)on1 [Compound 581, 3-tert-butyl-N-{(3S)-4-[2-(4-chloro-3-fluorophenoxy)acetamido]-3-hydroxybicyclo[2.2.2]octan-1-yl}-1,2-oxazole-5-carboxamide] | < 50 nM |
| O=C(COc1ccc2c(c1)OC(F)(F)O2)NC12CC(NC(=O)c3cnc(-c4ccccc4)o3)(C1)C2 [Compound 742, N-(3-{2-[(2,2-difluoro-2H-1,3-benzodioxol-5-yl)oxy]acetamido}bicyclo[1.1.1]pentan-1-yl)-2-phenyl-1,3-oxazole-5-carboxamide] | < 50 nM |
| Cc1ccnc(C(=O)NC23CC(NC(=O)COc4ccc(Cl)c(Cl)c4)(C2)C3)c1 [Compound 526, N-{3-[2-(3,4-dichlorophenoxy)acetamido]bicyclo[1.1.1]pentan-1-yl}-4-methylpyridine-2-carboxamide] | 250 to 1000 nM |
| O=C(COc1ccc(Cl)c(F)c1)NC12CC(Nc3cncc(C(F)(F)F)n3)(C1)C2 [Compound 747, 2-(4-chloro-3-fluorophenoxy)-N-(3-{[6-(trifluoromethyl)pyrazin-2-yl]amino}bicyclo[1.1.1]pentan-1-yl)acetamide] | > 2000 nM |
